Reference: article PMC7704793 (Bioorganic & medicinal chemistry letters, 2020)

Legend:
MRSA ATCC 43300 = experiment: Inhibition of MRSA biofilm formation, crystal violet reporter assay; assay type: cell-based, Staphylococcus aureus; conditions: SAR discussion
CCD-18 Co cells = experiment: MTT cytotoxicity assay in normal human colon cells; assay type: cell-based; conditions: day 1, CCD-18 Co cells

SMILES | MRSA biofilm inhibition activity compared to the parent 5a (in words) (MRSA ATCC 43300) | also measured
Nc1nc(-c2cccc(OCc3ccccc3)c2)cc(-c2nc3ccccc3c(=O)[nH]2)n1 [Compound 5r] | reduced activity | 
Nc1nc(-c2cccc(Br)c2)cc(-c2nc3ccccc3c(=O)[nH]2)n1 [Compound 5k] |  | cellular toxicity (MTT) (CCD-18 Co cells; 12.5 μM (lowest concentration used)): significant toxicity
Cc1ccc(-c2cc(-c3nc4ccccc4c(=O)[nH]3)nc(N)n2)cc1 [Compound 5b] | reduced activity | 
COc1cc(-c2cc(-c3nc4ccccc4c(=O)[nH]3)nc(N)n2)cc(OC)c1OC [Compound 5i] | considerably reduced activity | 
CSc1ccc(-c2cc(-c3nc4ccccc4c(=O)[nH]3)nc(N)n2)cc1 [Compound 5j] |  | cellular toxicity (MTT) (CCD-18 Co cells; 50 μM, versus DMSO controls): more cytotoxic
COc1ccc(-c2cc(-c3nc4ccccc4c(=O)[nH]3)nc(N)n2)cc1OC [Compound 5e] | reduced activity | 
COc1cc(OC)c(-c2cc(-c3nc4ccccc4c(=O)[nH]3)nc(N)n2)c(OC)c1 [Compound 5h] |  | cellular toxicity (MTT) (CCD-18 Co cells; 50 μM, versus DMSO controls): minimal
